The test system of data set [1] is Rattus norvegicus. The data set can be described thus: Tmax in rat assessed as (S)-2-(2,6-difluorobenzamido)-3-(4-(1,3,6-trimethyl-2,4-dioxo-1,2,3,4-tetrahydropyrimidin-5-yl)phenyl)propanoic acid level at 50 mg/kg, po. Format: ADME, organism-based. More on the design: dose 50 mg/kg, route oral. As to conditions: in vivo.
The subject of data set [2] is Cynomolgus monkey. The data set can be described thus: Antiinflammatory activity in atopic cynomolgus monkey challenged with aerosolized Ascaris suum extract assessed as reduction in lymphocytes influx into lungs at 1 and 30 mg/kg, po administered 4 hrs before antigen challenge measured 48 hrs after antigen challenge. More on the design: dose 30 mg/kg. It is filed as functional, organism-based. As to conditions: Macaca fascicularis.

The test system of data set [3] is Mus musculus. The data set can be described thus: AUC (0 to 24 hrs) in mouse assessed as (S)-2-(2,6-difluorobenzamido)-3-(4-(1,3,6-trimethyl-2,4-dioxo-1,2,3,4-tetrahydropyrimidin-5-yl)phenyl)propanoic acid level at 50 mg/kg, po. Format: ADME, organism-based, Plasma. Details: time < 24 hr, dose 50 mg/kg, route oral. As to conditions: in vivo.
Data set [4] concerns Mus musculus. As to the kind of experiment: Cmax in mouse assessed as (S)-2-(2,6-difluorobenzamido)-3-(4-(1,3,6-trimethyl-2,4-dioxo-1,2,3,4-tetrahydropyrimidin-5-yl)phenyl)propanoic acid level at 50 mg/kg, po. Details: dose 50 mg/kg, route oral. Format: ADME, organism-based. As to conditions: in vivo.
Data set [5] in a line: Oral bioavailability in rat. Format: ADME, organism-based. As to conditions: in vivo.
In data set [6] the test system is Rattus norvegicus. As to the kind of experiment: Cmax in rat assessed as (S)-2-(2,6-difluorobenzamido)-3-(4-(1,3,6-trimethyl-2,4-dioxo-1,2,3,4-tetrahydropyrimidin-5-yl)phenyl)propanoic acid level at 50 mg/kg, po. It is filed as ADME, organism-based. More on the design: dose 50 mg/kg, route oral. Conditions: in vivo.
The subject of data set [7] is Mus musculus. As to the kind of experiment: Oral bioavailability in mouse assessed as (S)-2-(2,6-difluorobenzamido)-3-(4-(1,3,6-trimethyl-2,4-dioxo-1,2,3,4-tetrahydropyrimidin-5-yl)phenyl)propanoic acid level at 50 mg/kg. As to conditions: in vivo. It is filed as ADME, organism-based.
Data set [8] deals with Cynomolgus monkey. As to the kind of experiment: Cmax in cynomolgus monkey assessed as (S)-2-(2,6-difluorobenzamido)-3-(4-(1,3,6-trimethyl-2,4-dioxo-1,2,3,4-tetrahydropyrimidin-5-yl)phenyl)propanoic acid level at 30 mg/kg, po. It is filed as ADME, organism-based, Macaca fascicularis. More on the design: dose 30 mg/kg, route oral. As to conditions: in vivo.
Data set [9] deals with Cynomolgus monkey. The data set can be described thus: AUC (0 to 24 hrs) in cynomolgus monkey assessed as (S)-2-(2,6-difluorobenzamido)-3-(4-(1,3,6-trimethyl-2,4-dioxo-1,2,3,4-tetrahydropyrimidin-5-yl)phenyl)propanoic acid level at 30 mg/kg, po. Format: ADME, organism-based, Macaca fascicularis, Plasma. As to conditions: in vivo. More on the design: time < 24 hr, dose 30 mg/kg, route oral.

Data set [10] can be described thus: Distribution coefficient, log D of the compound. It is filed as physicochemical. Conditions: octanol/water.
The subject of data set [11] is Cynomolgus monkey. The data set can be described thus: Antiinflammatory activity in atopic cynomolgus monkey challenged with aerosolized Ascaris suum extract assessed as reduction in neutrophils influx into lungs at 1 and 30 mg/kg, po administered 4 hrs before antigen challenge measured 48 hrs after antigen challenge. Format: functional, organism-based. More on the design: dose 30 mg/kg. Conditions: Macaca fascicularis.

Data set [12] concerns Canis familiaris. As to the kind of experiment: Tmax in dog assessed as (S)-2-(2,6-difluorobenzamido)-3-(4-(1,3,6-trimethyl-2,4-dioxo-1,2,3,4-tetrahydropyrimidin-5-yl)phenyl)propanoic acid level at 50 mg/kg, po. Format: ADME, organism-based, Canis lupus familiaris. More on the design: dose 50 mg/kg, route oral. As to conditions: in vivo.
A short description of data set [13]: Apparent permeability across human Caco2 cells. Format: ADME, cell-based. As to conditions: Caco-2. In general terms: Passage across Caco-2 layers is used to estimate intestinal permeability.
The test system of data set [14] is Rattus norvegicus. The data set can be described thus: AUC (0 to 24 hrs) in rat assessed as (S)-2-(2,6-difluorobenzamido)-3-(4-(1,3,6-trimethyl-2,4-dioxo-1,2,3,4-tetrahydropyrimidin-5-yl)phenyl)propanoic acid level at 50 mg/kg, po. It is filed as ADME, organism-based, Plasma. As to conditions: in vivo. Details: time < 24 hr, dose 50 mg/kg, route oral.
The subject of data set [15] is Canis familiaris. As to the kind of experiment: AUC (0 to 24 hrs) in dog assessed as (S)-2-(2,6-difluorobenzamido)-3-(4-(1,3,6-trimethyl-2,4-dioxo-1,2,3,4-tetrahydropyrimidin-5-yl)phenyl)propanoic acid level at 50 mg/kg, po. Format: ADME, organism-based, Canis lupus familiaris, Plasma. More on the design: time < 24 hr, dose 50 mg/kg, route oral. Conditions: in vivo.

Data set [16] concerns Cynomolgus monkey. As to the kind of experiment: Tmax in cynomolgus monkey assessed as (S)-2-(2,6-difluorobenzamido)-3-(4-(1,3,6-trimethyl-2,4-dioxo-1,2,3,4-tetrahydropyrimidin-5-yl)phenyl)propanoic acid level at 30 mg/kg, po. It is filed as ADME, organism-based, Macaca fascicularis. More on the design: dose 30 mg/kg, route oral. As to conditions: in vivo.
Data set [17] has as its system Canis familiaris. As to the kind of experiment: Oral bioavailability in dog assessed as (S)-2-(2,6-difluorobenzamido)-3-(4-(1,3,6-trimethyl-2,4-dioxo-1,2,3,4-tetrahydropyrimidin-5-yl)phenyl)propanoic acid level at 50 mg/kg. Format: ADME, organism-based, Canis lupus familiaris. Conditions: in vivo.
Data set [18] deals with Mus musculus. The data set can be described thus: Tmax in mouse assessed as (S)-2-(2,6-difluorobenzamido)-3-(4-(1,3,6-trimethyl-2,4-dioxo-1,2,3,4-tetrahydropyrimidin-5-yl)phenyl)propanoic acid level at 50 mg/kg, po. It is filed as ADME, organism-based. More on the design: dose 50 mg/kg, route oral. As to conditions: in vivo.
Data set [19] deals with Rattus norvegicus. The data set can be described thus: Oral bioavailability in rat assessed as (S)-2-(2,6-difluorobenzamido)-3-(4-(1,3,6-trimethyl-2,4-dioxo-1,2,3,4-tetrahydropyrimidin-5-yl)phenyl)propanoic acid level at 50 mg/kg. Format: ADME, organism-based. As to conditions: in vivo.
The subject of data set [20] is Cynomolgus monkey. The data set can be described thus: Oral bioavailability in cynomolgus monkey assessed as (S)-2-(2,6-difluorobenzamido)-3-(4-(1,3,6-trimethyl-2,4-dioxo-1,2,3,4-tetrahydropyrimidin-5-yl)phenyl)propanoic acid level at 30 mg/kg. It is filed as ADME, organism-based, Macaca fascicularis. As to conditions: in vivo.
The subject of data set [21] is Cynomolgus monkey. The data set can be described thus: Antiinflammatory activity in atopic cynomolgus monkey challenged with aerosolized Ascaris suum extract assessed as reduction in eosinophils influx into lungs at 1 and 30 mg/kg, po administered 4 hrs before antigen challenge measured 48 hrs after antigen challenge. It is filed as functional, organism-based. More on the design: dose 30 mg/kg. Conditions: Macaca fascicularis.

The test system of data set [22] is Canis familiaris. As to the kind of experiment: Cmax in dog assessed as (S)-2-(2,6-difluorobenzamido)-3-(4-(1,3,6-trimethyl-2,4-dioxo-1,2,3,4-tetrahydropyrimidin-5-yl)phenyl)propanoic acid level at 50 mg/kg, po. It is filed as ADME, organism-based, Canis lupus familiaris. More on the design: dose 50 mg/kg, route oral. As to conditions: in vivo.

The values below come from ChEMBL document CHEMBL2331362, “Identification of N-acyl 4-(5-pyrimidine-2,4-dionyl)phenylalanine derivatives and their orally active prodrug esters as dual-acting alpha4-beta1 and alpha4-beta7 receptor antagonists” (Bioorg Med Chem Lett, 2013).

Activity calls are given as the source filed them. The rule behind the calls is not given here.

Turning to `CCOC(=O)[C@H](Cc1ccc(-c2c(C)n(C)c(=O)n(C)c2=O)cc1)NC(=O)c1c(F)cccc1F`, the Tmax came out at 1.3 h with Rattus norvegicus [1], 1 h in the data set on Canis familiaris [12], 2 h in the data set with Cynomolgus monkey [16] and 0.25 h in the data set on Mus musculus [18]. The result in the data set with Cynomolgus monkey [2], with Cynomolgus monkey [11] and in the data set with Cynomolgus monkey [21] was Active. Moreover, the AUC was 8547 ng·h/mL in the data set on Mus musculus [3], 3146 ng·h/mL with Cynomolgus monkey [9], 18097 ng·h/mL in the data set with Rattus norvegicus [14] and 1690 ng·h/mL with Canis familiaris [15]. Moreover, the Cmax stood at 2988 ng/mL with Mus musculus [4], 5287 ng/mL with Rattus norvegicus [6], 337 ng/mL with Cynomolgus monkey [8] and 471 ng/mL in the data set with Canis familiaris [22]. In data set [5], this molecule had a bioavailability of 9%. In addition, the F in the data set with Mus musculus [7] is recorded as 22%; with Canis familiaris [17], 6%; in the data set with Rattus norvegicus [19] it was 9%; in the data set on Cynomolgus monkey [20], 7%. Besides, in data set [10], the logD came out at 1.73. Further, the Papp in data set [13] is 26.9 ×10⁻⁶ cm/s.

The term Tmax denotes the time from dosing to the highest level. As usually defined, the AUC is concentration integrated over time. As usually defined, the Cmax is the highest concentration seen after dosing. For orientation: bioavailability means the share of a dose that reaches the circulation, judged against a reference dose that is usually intravenous. For orientation: logD means the decadic logarithm of the distribution of all forms, ionised or not, between an organic phase and buffer at a given pH. The term Papp denotes the rate of passage across a membrane or cell layer, normalised by area and donor concentration.
